# Assay results reported in US6545007B2, “Methods for inhibiting the transmission of HIV using topically applied substituted 6-benzyl-4-oxopyrimidines” (Idenix (Cayman) Limited, priority 2000, dated 2003).
# Where two headings read alike, the source gives them in different places.
# How the values were obtained:
# HIV-1 = conditions: MT-4 cells infected with very high virus load; p24 ELISA of cell-free supernatants at 4 day intervals for 4 weeks
# Description: To evaluate the antiviral activity of test compounds the following cell types were used: T lymphocytes (PBLs) and monocytes from peripheral blood of healthy donors; U937, human monocyte cell line permissive for HIV replication; C8166 and MT-4, human CD^4+ T-cell lines permissive for HIV replication; H9, human CD4+ T-cell line permissive for HIV replication, but partially resistant to its cytopathic effect; H9/IIIB, subclone of H9 cells chronically infected with HIV-1 (strain IIIB). […] Cells were grown in RPMI-1640 (H9, MT-4, C8166, U937, PBMC, PBL) or in DMEM (HeLa, ME-180, fibroblasts) medium supplemented with 10% FCS, 100 units/mL penicillin and 100 μg/mL streptomycin. The cultures were incubated at 37° C. in a humidified, 5% CO2 atmosphere. The absence of mycoplasma contamination was periodically checked by the Hoechst staining method.
# HIV-1(strains IIIB, NM, RF, Ba-L) and HIV-2 (ROD strain) were obtained from the supernatant of persistently infected cells. The CBL-20 strain of HIV-2, kindly obtained from “MRC AIDS Directed Program Reagent Project”, was propagated in MT-4 cells. Clinical isolates of HIV-1 from peripheral blood and from seminal fluid, were propagated in PBLs. The HIV stock solutions were titrated in C8166 cells and kept at −80° C. until use.
# The levels of p24 viral protein were determined in the cell-free culture supernatants by the HIV-1 p24 antigen enzyme-linked immunosorbent assay kit (ELISA, Abbott).
# To evaluate the ability of compounds to extinguish the infection, the following experimental conditions were followed. 10^6 MT-4 cells were infected at 20° C. for 1 hr with a very high virus load (up to 10 CCID50/cell; 1 CCID50=25-250 infectious virions), in the absence or in the presence of test compounds. […] For 4 weeks, at 4 days intervals, the anti-HIV activity of test compounds, alone and in combination, was evaluated by determining the following parameters: p24 levels; virus-induced cytopathogenicity; infectious virus yield; DNA and RNA viral sequences (by PCR).
# mock-infected MT-4 cells = test: Cytotoxicity: viability of mock-infected cells by the MTT method; format: cell-based, human
# Summary of the method: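 Mock-infected MT-4 cells (1×10^4 per well) in RPMI 1640 with 10% FCS exposed to various compound concentrations for 4 days at 37° C, 5% CO2, in parallel with the antiviral assay. Viable cells counted by MTT method.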
# HIV-1 (IIIB strain) = format: cell-based; conditions: for EC50: anti-HIV-1 activity; for SI: selectivity index (CC50/EC50)
# Summary of the method: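 MT-4 cells (1×10^4/well) were infected with 100 CCID50 HIV-1 IIIB in presence of compound and incubated 4 days at 37 °C. Protection from virus-induced cytopathicity was scored by MTT viability, with cytotoxicity measured in parallel on mock-infected cells.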
# [1] = acutely infected MT-4 cells, MTT
Structure (SMILES),concentration able to maintain a sustained reduction of p24 in the culture supernatants (HIV-1),CC50 (mock-infected MT-4 cells),EC50 (HIV-1 (IIIB strain); HIV-1-infected MT-4 cells),SI (HIV-1 (IIIB strain)),CC50 (mock-infected MT-4 cells; MTT),EC50 (HIV-1 (IIIB strain); [1])
Cc1c(C(C)c2c(F)cccc2F)nc(N(C)C)[nH]c1=O (stereo not shown) [MC 1220],3.5 µM,,,,,
"Cc1c(C(C)c2c(F)cccc2F)nc(SC2CCCC2)[nH]c1=O (stereo not shown) [MC-1047, 2-Cyclopentylthio-6-{1-(2,6-difluorophenyl)ethyl}-3,4-dihydro-5-methylpyrimidin-4(3H)-one]",10 µM,> 200 µM,0.009 µM,">22,222",,
"Cc1ccnc2c1NC(=O)c1cccnc1N2C1CC1 [Nevirapine, 11-cyclopropyl-5,11-dihydro-4-methyl-6H-dipyridol{3,2-b:2′,3′-e}diazepin-6-one, reference compound]",300 µM,,,,,
CCC(c1cc(=O)[nH]c(SC2CCCC2)n1)c1c(F)cccc1F (stereo not shown) [MC 1006],,200 µM,0.15 µM,"1,333",,
CC(C)Sc1nc(C(C)c2c(F)cccc2F)cc(=O)[nH]1 (stereo not shown) [MC 1007],,167 µM,0.05 µM,"3,340",,
CCC(C)Sc1nc(Cc2ccc(Cl)cc2)c(C)c(=O)[nH]1 (stereo not shown) [MC 911],,> 200 µM,9.5 µM,20,,
CSCSc1nc(Cc2ccccc2)cc(=O)[nH]1 [MC 1140],,,,,> 200 µM,20 µM
CCc1c(Cc2c(F)cccc2F)nc(SCSC)[nH]c1=O [MC 1157],,,,,50 µM,0.11 µM
CCC(C)Sc1nc(Cc2c(Cl)cccc2Cl)c(C)c(=O)[nH]1 (stereo not shown) [MC 850],,> 200 µM,0.05 µM,">4,000",,
CCc1c(Cc2c(F)cccc2F)nc(SC(C)C)[nH]c1=O [MC 1037],,65 µM,0.2 µM,326,,
CCC(C)Sc1nc(Cc2ccc(F)cc2)cc(=O)[nH]1 (stereo not shown) [MC 889],,> 200 µM,8.7 µM,23,,
CCCCSc1nc(Cc2c(F)cccc2F)c(C)c(=O)[nH]1 [MC 905],,> 200 µM,0.08 µM,">2,500",,
"Cc1c(C(C)c2c(F)cccc2F)nc(SC2CCCC2)[nH]c1=O (single isomer, unassigned) [MC 1047+]",,,,,> 200 µM,0.002 µM
Cc1c(Cc2c(F)cccc2F)nc(N(C)C)[nH]c1=O [MC 1195],,,,,> 200 µM,0.02 µM
O=c1cc(Cc2c(F)cccc2F)nc(NC2CCCC2)[nH]1 [MC 1022],,> 200 µM,0.09 µM,">2,222",,
CCC(C)Sc1nc(Cc2ccc(N)cc2)cc(=O)[nH]1 (stereo not shown) [MC 960],,> 200 µM,23 µM,>8,,
CC(C)Sc1nc(C(C)c2c(Cl)cccc2Cl)cc(=O)[nH]1 (stereo not shown) [MC 1001],,117 µM,1.2 µM,97.5,,
CCC(C)Sc1nc(Cc2ccccc2F)cc(=O)[nH]1 (stereo not shown) [MC 880],,200 µM,0.26 µM,769,,
CC(c1cc(=O)[nH]c(NC2CCCC2)n1)c1c(F)cccc1F (stereo not shown) [MC 1048],,75 µM,0.03 µM,"2,500",,
CCC(C)Sc1nc(Cc2ccc(C)cc2)c(C)c(=O)[nH]1 (stereo not shown) [MC 845],,26 µM,0.8 µM,32,,

Structure (SMILES),concentration able to maintain a sustained reduction of p24 in the culture supernatants (HIV-1),CC50 (mock-infected MT-4 cells),EC50 (HIV-1 (IIIB strain); HIV-1-infected MT-4 cells),SI (HIV-1 (IIIB strain)),CC50 (mock-infected MT-4 cells; MTT),EC50 (HIV-1 (IIIB strain); [1])
O=c1cc(Cc2c(F)cccc2F)nc(N2CCCC2)[nH]1 [MC 1196],,,,,> 200 µM,2.1 µM
CCC(c1ccccc1)c1cc(=O)[nH]c(SC2CCCCC2)n1 (stereo not shown) [MC 903],,> 200 µM,1.3 µM,>154,,
CCC(C)Sc1nc(Cc2ccc(F)cc2)c(C)c(=O)[nH]1 (stereo not shown) [MC 919],,105 µM,11 µM,9.5,,
CCC(C)Sc1nc(C(C)c2c(F)cccc2F)cc(=O)[nH]1 (stereo not shown) [MC 1110],,> 200 µM,0.03 µM,">6,666",,
CC(C)CSc1nc(Cc2c(Cl)cccc2Cl)cc(=O)[nH]1 [MC 885],,> 200 µM,0.45 µM,>444,,
CC(c1cc(=O)[nH]c(SC2CCCCC2)n1)c1c(F)cccc1F (stereo not shown) [MC 1013],,> 200 µM,0.16 µM,">1,250",,
CCCCNc1nc(C(C)c2c(F)cccc2F)cc(=O)[nH]1 (stereo not shown) [MC 1189],,,,,52 µM,0.03 µM
Cc1c(Cc2c(F)cccc2F)nc(NC2CCCC2)[nH]c1=O [MC 1050],,> 200 µM,0.02 µM,">10,000",,
CCCCSc1nc(Cc2c(Cl)cccc2Cl)cc(=O)[nH]1 [MC 886],,> 200 µM,0.44 µM,>454,,
CSc1nc(Cc2c(F)cccc2F)cc(=O)[nH]1 [MC 871],,200 µM,0.81 µM,247,,
CCC(C)Sc1nc(Cc2ccc([N+](=O)[O-])cc2)cc(=O)[nH]1 (stereo not shown) [MC 863],,151 µM,1.5 µM,101,,
CC(C)Sc1nc(Cc2c(Cl)cccc2Cl)cc(=O)[nH]1 [MC 878],,> 200 µM,1.9 µM,>105,,
CCc1c(Cc2c(F)cccc2F)nc(SC(C)CC)[nH]c1=O (stereo not shown) [MC 1038],,> 200 µM,0.1 µM,">2,000",,
CCC(C)Sc1nc(Cc2ccc(Cl)cc2)cc(=O)[nH]1 (stereo not shown) [MC 859],,120 µM,5 µM,24,,
CSc1nc(Cc2c(Cl)cccc2Cl)cc(=O)[nH]1 [MC 877],,> 200 µM,3.2 µM,>62,,
O=c1cc(Cc2c(F)cccc2F)nc(N2CCOCC2)[nH]1 [MC 1188],,,,,> 200 µM,0.6 µM
CCCN(CCC)c1nc(Cc2c(F)cccc2F)cc(=O)[nH]1 [MC 1204],,,,,> 200 µM,3.8 µM
CCC(c1cc(=O)[nH]c(SC2CCCCC2)n1)c1cccc2ccccc12 (stereo not shown) [MC 975],,16.9 µM,0.18 µM,94,,
O=c1cc(Cc2c(F)cccc2F)nc(OC2CCCC2)[nH]1 [MC 1103],,> 200 µM,20 µM,>10,,
